From US10351827B2, “Method for differentiating induced pluripotent stem cells into renal proximal tubular cell-like cells” (priority 2013, dated 2019)
Like-named read-outs stand apart in the source and are kept apart here.

What was measured:
[1] = tested on: iPS(Foreskin)-4-derived d8 HPTC-like cells
[2] = tested on: PTC in humans; conditions: cited from earlier work
[3] = 1 μg/ml, overnight (16 h), qPCR, normalized to vehicle control (=1), mean +/- s.d., n=3
[4] = 10 μg/ml, overnight (16 h), qPCR, normalized to vehicle control (=1), mean +/- s.d., n=3
[5] = 100 μg/ml, overnight (16 h), qPCR, normalized to vehicle control (=1), mean +/- s.d., n=3
[6] = 1,000 μg/ml, overnight (16 h), qPCR, normalized to vehicle control (=1), mean +/- s.d., n=3

IL6 Expression Levels ([1]; human, 16 h, 1 μg/ml)	IL8 Expression Levels ([1]; human, 16 h, 1 μg/ml)	IL6 Expression Levels ([1]; human, 16 h, 10 μg/ml)	IL8 Expression Levels ([1]; human, 16 h, 10 μg/ml)	IL6 Expression Levels ([1]; human, 16 h, 100 μg/ml)	IL8 Expression Levels ([1]; human, 16 h, 100 μg/ml)	IL6 Expression Levels ([1]; human, 16 h, 1000 μg/ml)	IL8 Expression Levels ([1]; human, 16 h, 1000 μg/ml)	SMILES	IL6 Expression Levels [1, 3]	IL8 Expression Levels [1, 3]	IL6 Expression Levels [1, 4]	IL8 Expression Levels [1, 4]	IL6 Expression Levels [1, 5]	IL8 Expression Levels [1, 5]	IL6 Expression Levels [1, 6]	IL8 Expression Levels [1, 6]	also measured
6.2 ± 0.7	7.4 ± 1.4	6.4 ± 0.3	9.2 ± 1.4	9.2 ± 1.2	18.3 ± 2.2	1.1 ± 0.2	5.7 ± 0.5	O=c1[nH]cc(F)c(=O)[nH]1 [5-Fluorouracil]									
1.2 ± 0.1	0.5 ± 0.1	1.5 ± 0.3	0.6 ± 0.2	1.3 ± 0.2	0.4 ± 0.1	1.4 ± 0.4	1.6 ± 0.2	C[C@H]1O[C@H](O[C@H]2[C@H](O)[C@@H](O)[C@@H](O[C@H]3[C@H](O)[C@@H](O)C(O)O[C@@H]3CO)O[C@@H]2CO)[C@H](O)[C@@H](O)[C@@H]1N[C@H]1C=C(CO)[C@@H](O)[C@H](O)[C@H]1O (stereo partly shown) [Acarbose]									
1.3 ± 0.0	0.8 ± 0.3	1.2 ± 0.1	1.2 ± 0.2	1.4 ± 0.2	0.5 ± 0.1	0.3 ± 0.1	0.1 ± 0.0	CC(=O)Nc1ccc(O)cc1 [Acetaminophen]									
								COc1cccc2c1cc([N+](=O)[O-])c1c(C(=O)O)cc3c(c12)OCO3 [Aristolochic acid]	3.9 ± 0.5	5.0 ± 0.8	3.3 ± 0.2	4.8 ± 0.6	7.3 ± 1.6	43.5 ± 7.2	9.3 ± 0.5	1.6 ± 0.9	
								O=[As]O[As]=O (stereo not shown) [Arsenic (III) oxide]	1.5 ± 0.1	1.2 ± 0.5	5.2 ± 0.1	4.2 ± 0.1	14.2 ± 2.1	1.5 ± 0.2	8.2 ± 0.3	3.9 ± 1.6	
								[Bi+3].[Bi+3].[O-2].[O-2].[O-2] [Bismuth (III) oxide]	1.2 ± 0.1	0.4 ± 0.1	1.3 ± 0.2	2.6 ± 0.2	2.1 ± 0.1	33.0 ± 1.6	3.6 ± 0.3	192.7 ± 18.4	
								[Cl][Cd][Cl] [Cadmium chloride]	3.6 ± 0.4	15.0 ± 0.8	10.9 ± 0.4	7.6 ± 0.4	10.3 ± 1.6	4.4 ± 0.6	11.8 ± 0.5	20.5 ± 8.3	
								CC(=O)OCC1=C(C(=O)O)N2C(=O)[C@@H](NC(=O)CCC[C@@H](N)C(=O)O)[C@H]2SC1 [Cephalosporin C]									nephrotoxicity / toxicity for PTC in humans [2]: directly toxic for PTC
								CC1=C2C(=CO[C@H](C)[C@H]2C)C(O)=C(C(=O)O)C1=O [Citrinin]									increase of IL6 expression ([1]; human): ~6 fold; increase of IL8 expression ([1]; human): no increase in IL8 expression was observed; nephrotoxicity / toxicity for PTC in humans [2]: directly toxic for PTC
								[Cl][Cu][Cl] [Copper (II) chloride]	1.2 ± 0.1	7.2 ± 0.6	2.2 ± 0.2	67.1 ± 18.1	22.5 ± 2.2	58.2 ± 3.2	13.4 ± 0.0		
								OCCO [Ethylene glycol]									nephrotoxicity / toxicity for PTC in humans [2]: nephrotoxicants that do not damage PTC directly
1.6 ± 0.1	1.6 ± 0.6	1.9 ± 0.3	3.1 ± 1.5	1.7 ± 0.2	2.5 ± 0.6	1.9 ± 0.2	4.9 ± 1.9	NCC(=O)O [Glycine]									
								[Cl][Au] [Gold (I) chloride]	1.2 ± 0.2	0.9 ± 0.2	1.2 ± 0.1	0.9 ± 0.1	2.9 ± 0.2	2.0 ± 0.0	23.3 ± 0.4	1.2 ± 0.2	
								CC(=O)[O-].CC(=O)[O-].[Pb+2] [Lead acetate]	1.3 ± 0.3	0.4 ± 0.2	1.2 ± 0.3	1.3 ± 0.1	1.5 ± 0.1	5.0 ± 0.8	4.3 ± 0.8	29.4 ± 5.1	
1.2 ± 0.1	1.2 ± 1.2	1.3 ± 0.1	1.2 ± 0.3	1.2 ± 0.1	2.4 ± 0.9	1.4 ± 0.2	6.1 ± 0.5	CCC[C@@H]1C[C@@H](C(=O)N[C@@H]([C@H]2O[C@H](SC)[C@H](O)[C@@H](O)[C@H]2O)[C@@H](C)O)N(C)C1 [Lincomycin]									
								Cl[C@H]1[C@H](Cl)[C@@H](Cl)[C@@H](Cl)[C@H](Cl)[C@H]1Cl [Lindane]									nephrotoxicity / toxicity for PTC in humans [2]: nephrotoxicants that do not damage PTC directly
								[Cl-].[Li+] [Lithium chloride]									nephrotoxicity / toxicity for PTC in humans [2]: nephrotoxicants that do not damage PTC directly
6.5 ± 0.8	9.8 ± 2.4	6.1 ± 0.4	6.9 ± 1.0	4.4 ± 0.4	1.9 ± 0.9	1.1 ± 0.1		COc1ccc2[nH]cc(CCNC(C)=O)c2c1 [Melatonin]									
7.2 ± 0.2	23.3 ± 3.1	7.0 ± 1.1	11.1 ± 0.8	5.3 ± 0.1	7.7 ± 4.7	0.7 ± 0.2	6.4 ± 2.1	CCOc1ccc(NC(C)=O)cc1 [Phenacetin]									
								[K+].[K+].[O]=[Cr](=[O])([O-])[O][Cr](=[O])(=[O])[O-] [Potassium dichromate]	1.2 ± 0.4	0.5 ± 0.0	1.0 ± 0.0	0.7 ± 0.1	3.3 ± 0.3	0.8 ± 0.0	3.7 ± 0.4	1.2 ± 0.0	
1.9 ± 0.2	0.8 ± 0.2	14.1 ± 1.2	255.7 ± 28.2	29.0 ± 1.2	3,284.1 ± 1,069.3	26.6 ± 4.3	3,852.3 ± 309.9	COc1ccc(C[C@H](N)C(=O)N[C@H]2[C@@H](O)[C@H](n3cnc4c(N(C)C)ncnc43)O[C@@H]2CO)cc1 [Puromycin]									
1.4 ± 0.1	1.1 ± 0.4	1.5 ± 0.1	0.5 ± 0.1	1.2 ± 0.3	0.2 ± 0.0	1.0 ± 0.1	0.2 ± 0.0	NC(=O)c1ncn([C@@H]2O[C@H](CO)[C@@H](O)[C@H]2O)n1 [Ribavirin]									
6.6 ± 0.6	7.8 ± 0.4	6.1 ± 0.2	5.1 ± 0.6					C=CC[C@@H]1/C=C(\C)C[C@H](C)C[C@H](OC)[C@H]2O[C@@](O)(C(=O)C(=O)N3CCCC[C@H]3C(=O)O[C@H](/C(C)=C/[C@@H]3CC[C@@H](O)[C@H](OC)C3)[C@H](C)[C@@H](O)CC1=O)[C@H](C)C[C@@H]2OC [Tacrolimus]									
1.3 ± 0.1	0.5 ± 0.1	1.3 ± 0.1	0.6 ± 0.1	1.4 ± 0.1	0.9 ± 0.3	2.7 ± 0.4	25.5 ± 1.5	NC[C@H]1O[C@H](O[C@H]2[C@H](O)[C@@H](O[C@H]3O[C@H](CO)[C@@H](O)[C@H](N)[C@H]3O)[C@H](N)C[C@@H]2N)[C@H](N)C[C@@H]1O [Tobramycin]									
1.3 ± 0.1	1.5 ± 0.1	1.3 ± 0.1	1.4 ± 0.1	1.6 ± 0.1	1.0 ± 0.5	2.8 ± 0.4	32.5 ± 1.4	CC(C)[C@H](N)C(=O)OCCOCn1cnc2c(=O)[nH]c(N)nc21 [Valacyclovir]									
								CN[C@H](CC(C)C)C(=O)N[C@H]1C(=O)N[C@@H](CC(N)=O)C(=O)N[C@H]2C(=O)N[C@H]3C(=O)N[C@H](C(=O)N[C@H](C(=O)O)c4cc(O)cc(O)c4-c4cc3ccc4O)[C@H](O)c3ccc(c(Cl)c3)Oc3cc2cc(c3O[C@@H]2O[C@H](CO)[C@@H](O)[C@H](O)[C@H]2O[C@H]2C[C@](C)(N)[C@H](O)[C@H](C)O2)Oc2ccc(cc2Cl)[C@H]1O [Vancomycin]	1.5 ± 0.3	0.7 ± 0.0	1.4 ± 0.1	0.6 ± 0.2	1.4 ± 0.1	2.9 ± 0.2	3.1 ± 0.2	98.5 ± 4.5	
